The target of the experiment is T1, IRAK4 (Homo sapiens, UniProt Q9NWZ3).
T1 sequence (Q9NWZ3 1-460): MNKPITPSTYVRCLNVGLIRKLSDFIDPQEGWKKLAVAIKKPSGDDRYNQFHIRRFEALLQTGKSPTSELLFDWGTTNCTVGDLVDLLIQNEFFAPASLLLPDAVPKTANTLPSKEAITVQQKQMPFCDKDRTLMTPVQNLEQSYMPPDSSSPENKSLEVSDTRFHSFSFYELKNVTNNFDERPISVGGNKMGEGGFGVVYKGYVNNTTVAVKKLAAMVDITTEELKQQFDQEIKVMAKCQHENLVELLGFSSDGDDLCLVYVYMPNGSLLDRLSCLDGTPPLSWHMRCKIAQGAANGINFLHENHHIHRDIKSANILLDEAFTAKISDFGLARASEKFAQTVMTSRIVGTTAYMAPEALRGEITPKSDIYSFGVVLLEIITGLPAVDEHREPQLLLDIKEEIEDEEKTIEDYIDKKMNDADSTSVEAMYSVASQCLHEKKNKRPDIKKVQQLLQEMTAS
Briefly: Hibit fluorescence detection of proteolysis (IRAK4-HiBiT in HEK293T cells). It is filed as cell-based. The arrangement: host or cells: HEK293T (ATCC). Particulars: for Dmax: HEK-293T; for DC50: IRAK4-HiBiT, HEK293T cells, 24 h. A digest of the protocol: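 Degradation read-out: luminescence from lytic HiBiT detection (15 min, room temperature) after 24 h compound exposure (37 °C, 5% CO2) of HEK293T cells transiently expressing IRAK4 fused to a HiBiT tag. Data fitted to a bell-shaped four-parameter model giving two EC50 values.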
(HiBiT is a short tag that completes a luciferase, so light tracks the accessible tagged protein.)

Structures are written as SMILES. Read-outs that look alike come from different tables or passages of the source. Bounds are passed on as bounds.

`Cn1c(=O)n(C2CCC(=O)NC2=O)c2cccc(C3CCN(C[C@H]4CC[C@H](n5cc(-n6cc(-c7cnn8ccc(N9CCOCC9)nc78)nn6)c(C(F)F)n5)CC4)CC3)c21` (stereo partly drawn) [Example 11, 3-(4-(1-(((1r,4r)-4-(3-(difluoromethyl)-4-(4-(5-morpholinopyrazolo[1,5-a]pyrimidin-3-yl)-1H-1,2,3-triazol-1-yl)-1H-pyrazol-1-yl)cyclohexyl)methyl)piperidin-4-yl)-3-methyl-2-oxo-2,3-dihydro-1H-benzo[d]imidazol-1-yl)piperidine-2,6-dione] had a Dmax greater than 80% and a DC50 of less than 0.5 nM.

With `Cn1c(=O)n(C2CCC(=O)NC2=O)c2cccc(C#CC3CCN(C[C@H]4CC[C@H](n5cc(-n6cc(-c7ccc8cc(C(N)=O)cnn78)nn6)c(C(F)F)n5)CC4)CC3)c21` (stereo partly drawn) [Example 79], the Dmax lay in the range of 70 to 80% and the DC50 was in the range of 0.5 to 1 nM.

For the compound `CN(C[C@H]1CC[C@H](n2cc(-n3cc(-c4cnn5ccc(N6CCOCC6)nc45)nn3)c(C(F)F)n2)CC1)C1CCN(Cc2cccc3c2n(C)c(=O)n3C2CCC(=O)NC2=O)CC1` (stereo partly drawn) [Example 15], the Dmax was less than 60% and the DC50 was in the range of 1 to 5 nM.

Compound `Cn1c(=O)n(C2CCC(=O)NC2=O)c2cccc(N3CCC4(CCCN(C[C@H]5CC[C@H](n6cc(-n7cc(-c8cnn9ccc(N%10CCOCC%10)nc89)nn7)c(C(F)F)n6)CC5)C4)CC3)c21` (stereo partly drawn) [Example 53, 3-(4-(2-(((1r,4r)-4-(3-(difluoromethyl)-4-(4-(5-morpholinopyrazolo[1,5-a]pyrimidin-3-yl)-1H-1,2,3-triazol-1-yl)-1H-pyrazol-1-yl)cyclohexyl)methyl)-2,9-diazaspiro[5.5]undecan-9-yl)-3-methyl-2-oxo-2,3-dihydro-1H-benzo[d]imidazol-1-yl)piperidine-2,6-dione] registered a Dmax of 70 to 80% and a DC50 of 0.5 to 1 nM.

Turning to `C[C@@H]1CN(c2cccc3c2n(C)c(=O)n3C2CCC(=O)NC2=O)CCN1C[C@H]1CC[C@H](n2cc(-n3cc(-c4cnn5ccc(N6CCOCC6)nc45)nn3)c(C(F)F)n2)CC1` (stereo partly drawn) [Example 50], the Dmax was in the range of 60 to 70% and the DC50 lay in the range of 0.5 to 1 nM.

In turn, `NC(=O)c1cnn2c(-c3cn(-c4cn([C@H]5CC[C@H](CN6CCN(c7ccc8c(c7)C(=O)N(C7CCC(=O)NC7=O)C8=O)CC6)CC5)nc4C(F)F)nn3)ccc2c1` (stereo partly drawn) [Example 70, 7-(1-(3-(difluoromethyl)-1-((1r,4r)-4-(4-(2-(2,6-dioxopiperidin-3-yl)-1,3-dioxoisoindolin-5-yl)piperazin-1-yl)methyl)cyclohexyl-1H-pyrazol-4-yl)-1H-1,2,3-triazol-4-yl)pyrrolo[1,2-b]pyridazine-3-carboxamide] returned a Dmax of 70 to 80% and a DC50 of 1 to 5 nM.

`CN1CCN(c2ccn3ncc(-c4cn(-c5cn([C@H]6CC[C@H](CN(C)[C@H]7CC[C@H](Nc8cccc9c8n(C)c(=O)n9C8CCC(=O)NC8=O)CC7)CC6)nc5C(F)F)nn4)c3n2)CC1` (stereo partly drawn) [Compound 230] gave a Dmax of 60 to 70%. Besides, under “read-out: DC50”, the DC50 fell in the range of 0.5 to 1 nM.

As to `Cn1c(=O)n(C2CCC(=O)NC2=O)c2cccc(CCC(=O)N3CCC4(CC3)CN(C[C@H]3CC[C@H](n5cc(-n6cc(-c7cnn8ccc(N9CCOCC9)nc78)nn6)c(C(F)F)n5)CC3)C4)c21` (stereo partly drawn) [Example 16], the Dmax fell in the range of 60 to 70% and the DC50 is less than 0.5 nM.

`Cn1c(=O)n(C2CCC(=O)NC2=O)c2cccc(N3CC4CN(C[C@H]5CC[C@H](n6cc(-n7cc(-c8cnn9ccc(N%10CCOCC%10)nc89)nn7)c(C(F)F)n6)CC5)CC4C3)c21` (stereo partly drawn) [Example 33, 3-(4-((1R,4R)-4-(3-(difluoromethyl)-4-(4-(5-morpholinopyrazolo[[1,5-a]pyrimidin-3-yl)-1H-1,2,3-triazol-1-yl)-1H-pyrazol-1-yl)cyclohexyl)methylhexahydropyrrolo[3,4-c]pyrrol-2(1H)-yl)-3-methyl-2-oxo-2,3-dihydro-1H-benzo[d]imidazol-1-yl)piperidine-2,6-dione] registered a Dmax of 60 to 70% and a DC50 of less than 0.5 nM.

These data come from patent EP4759807A1, “PROTEOLYSIS TARGETING CHIMERA COMPOUND FOR DEGRADING IRAK4 AND USE THEREOF” (Shenzhen Zhongge Biological Technology Co., Ltd., priority 2023, dated 2025).
